Source: patent US8546409B2, “Methods of treatment for solid tumors” (priority 2009, dated 2013)
“Also recorded” adds a separate entry of the source. Where two headings read alike, the source gives them in different places.

Tests used:
OVCAR-8 = test: NCI panel growth inhibition, OVCAR-8; assay type: cell-based; conditions: Homo sapiens, Ovarian
From the text: (§1) Compound I has also been tested in a battery of tumor cell assays known as the NCI panel.

[1] = Half-life in vivo in rats
From the text: (§2) Treatments of the invention typically involve administration of compound Ito a subject in need of treatment on a daily basis for at least one week or more than one week, often for 2-4 weeks, and sometimes for 1-3 months or more. The half-life of Compound I in vivo in mice and rats is several hours—see FIG. 6. It is thus sometimes desirable to administer compound I in multiple doses each day, in order to maintain efficacious plasma levels over a prolonged period of time. Administration may be done in two doses per day, or three doses per day, or in some embodiments, four doses per day or more, particularly when Compound I is administered orally. Alternatively, Compound I can be administered intravenously at a rate that maintains an efficacious plasma level for a prolonged period of time. Suitably, it would be administered at a rate to achieve a plasma level of at least about 1 micromolar, or at least 3 micromolar, or at least 5 micromolar.

in vivo = test: in vivo; design: species or system mice; conditions: female, nu/nu, mouse
Method: At this range, which was the effective dosage used in the tests shown in FIGS. 8 and 9, plasma concentration of compound I reaches about 5000-7000 ng/mL.
Compound I was administered in a single dose at a rate of 30 mg/kg to each test subject, and plasma levels were monitored for 12 hours thereafter. Plasma levels of Compound I peaked around 2-4 hours after administration in each case, and had essentially returned to zero 8 hours after the single dose at this rate, as shown in FIG. 10. The peak plasma concentration for these subjects, after a single injection at the dose shown to be effective for inhibiting tumor growth of each xenograft (see the preceding examples, and FIGS. 8-9) were generally below about 7000 ng/mL.

RXF 393 = test: NCI panel growth inhibition, RXF 393; assay type: cell-based; conditions: Homo sapiens, Renal
From the text: as §1

NCI-H23 = test: NCI panel growth inhibition, NCI-H23; assay type: cell-based; conditions: Homo sapiens, Non-Small Cell Lung Cancer
From the text: as §1

SK-MEL-2 = test: NCI panel growth inhibition, SK-MEL-2; assay type: cell-based; conditions: Homo sapiens, Melanoma
From the text: as §1

ACHN = test: NCI panel growth inhibition, ACHN; assay type: cell-based; conditions: Homo sapiens, Renal
From the text: as §1

UACC-257 = test: NCI panel growth inhibition, UACC-257; assay type: cell-based; conditions: Homo sapiens, Melanoma
From the text: as §1

SF-268 = test: NCI panel growth inhibition, SF-268; assay type: cell-based; conditions: Homo sapiens, CNS Cancer
From the text: as §1

DU-145 = test: NCI panel growth inhibition, DU-145; assay type: cell-based; conditions: Homo sapiens, Prostate
From the text: as §1

HT29 = test: NCI panel growth inhibition, HT29; assay type: cell-based; conditions: Homo sapiens, HT-29, Colon Cancer
From the text: as §1

M14 = test: NCI panel growth inhibition, M14; assay type: cell-based; conditions: Homo sapiens, Melanoma
From the text: as §1

[2] = system: NCI panel cancer cell lines; test: NCI panel of tumor cell assays, summary over cell lines; assay type: cell-based; conditions: for Cell line number: GI50 less than 2 micromolar
From the text: Compound I has also been tested in a battery of tumor cell assays known as the NCI panel. […] Using this measure, 1.8% of cell lines were particularly sensitive to Compound B at this level, while 39% were particularly sensitive to Compound I at the same concentration. […] Loss of PTEN activity often occurs in cancers, and enhances the sensitivity of a tumor to PI3K inhibitors. […] The following Table summarizes the cell lines found to be sensitive to Compound I and the known mutations in those cell lines.

MCF7 = test: NCI panel growth inhibition, MCF7; assay type: cell-based; conditions: Homo sapiens, Breast Cancer
From the text: as §1

T-47D = test: NCI panel growth inhibition, T-47D; assay type: cell-based; conditions: Homo sapiens, T47D, Breast Cancer
From the text: as §1

IGROV1 = test: NCI panel growth inhibition, IGROV1; assay type: cell-based; conditions: Homo sapiens, IGROV-1, Ovarian
From the text: as §1

SW-620 = test: NCI panel growth inhibition, SW-620; assay type: cell-based; conditions: Homo sapiens, Colon Cancer
From the text: as §1

A498 xenografts = test: Renal cancer xenografts in nu/nu mice (FIG. 9); assay type: in vivo; conditions: 30 mg/kg BID, 20 days, female nu/nu mice
Method: Female nu/nu mice bearing A498 xenografts (human renal cancer cells) were maintained until tumor volume measured about 100 mm^3. At that point, treatment began with compound I at a rate of 30 mg/kg administered twice per day.

SK-MEL-28 = test: NCI panel growth inhibition, SK-MEL-28; assay type: cell-based; conditions: Homo sapiens, Melanoma
From the text: as §1

CAKI-1 = test: NCI panel growth inhibition, CAKI-1; assay type: cell-based; conditions: Homo sapiens, Renal
From the text: as §1

COLO 205 = test: NCI panel growth inhibition, COLO 205; assay type: cell-based; conditions: Homo sapiens, Colon Cancer
From the text: as §1

OVCAR-4 = test: NCI panel growth inhibition, OVCAR-4; assay type: cell-based; conditions: Homo sapiens, Ovarian
From the text: as §1

NCI-H460 = test: NCI panel growth inhibition, NCI-H460; assay type: cell-based; conditions: Homo sapiens, Non-Small Cell Lung Cancer
From the text: as §1

[3] = mouse
From the text: Bioavailability of Compound I upon oral administration is especially good; even compared to other quinazolinones of similar structures. For example, FIG. 6 illustrates that Compound I produces higher plasma concentrations of drug than another quinazolinone compound having a similar structure (Compound B). […] The degree of difference in oral bioavailability between Compound I and Compound B observed in this test is surprising.
as §2

HCC-2998 = test: NCI panel growth inhibition, HCC-2998; assay type: cell-based; conditions: Homo sapiens, Colon Cancer
From the text: as §1

SF-295 = test: NCI panel growth inhibition, SF-295; assay type: cell-based; conditions: Homo sapiens, CNS Cancer
From the text: as §1

EKVX = test: NCI panel growth inhibition, EKVX; assay type: cell-based; conditions: Homo sapiens, Non-Small Cell Lung Cancer
From the text: as §1

SMILES: C[C@H](Nc1ncnc2[nH]cnc12)c1nc2ccc(F)cc2c(=O)n1-c1ccccc1 [Compound I]
- GI50 (OVCAR-8): 44.6 µM
- Half-life in vivo [1]: several hours
- AUC (in vivo): 18,000 ng-h/mL
- Time after which plasma levels had essentially returned to zero (in vivo; 30 mg/kg): 8 h
- Time of peak plasma level after administration (in vivo; 30 mg/kg): 2 to 4 h
- AUC (in vivo; AUC): 15000 ng·h/mL
- GI50 (RXF 393): 1.14 µM
- GI50 (NCI-H23): 100 µM
- GI50 (SK-MEL-2): 100 µM
- GI50 (ACHN): 10.7 µM
- GI50 (UACC-257): 17.4 µM
- GI50 (SF-268): 1.89 µM
- GI50 (DU-145): 1.35 µM
- GI50 (HT29): 16.5 µM
- GI50 (M14): 88.9 µM
- % EC50 < 2 μM ([2]; Breast): 62%
- Cell line number ([2]; Breast): 5/8
- % EC50 < 2 μM ([2]; CNS): 50%
- Cell line number ([2]; CNS): 3/6
- % EC50 < 2 μM ([2]; Colon): 14%
- Cell line number ([2]; Colon): 1/7
- % EC50 < 2 μM ([2]; Melanoma): 12%
- Cell line number ([2]; Melanoma): 1/8
- Cell lines with mutations in PTEN inhibited ([2]; NCI panel cell lines known to have PTEN mutations): 70%
- % EC50 < 2 μM ([2]; NSCLC): 11%
- Cell line number ([2]; NSCLC): 1/9
- % EC50 < 2 μM ([2]; Ovarian): 33%
- Cell line number ([2]; Ovarian): 2/6
- Cell line number ([2]; Prostate): 2/2
- % EC50 < 2 μM ([2]; Prostrate): 100%
- % EC50 < 2 μM ([2]; Renal): 75%
- Cell line number ([2]; Renal): 6/8
- Cell lines particularly sensitive (GI50 of 2 micromolar or less) ([2]; all NCI panel cell lines): 39%
- GI50 (MCF7): 2.54 µM
- GI50 (T-47D): 0.571 µM
- GI50 (IGROV1): 2.7 µM
- GI50 (SW-620): 69.3 µM
- Tumor volume of A498 xenograft (A498 xenografts): significantly inhibited growth; also recorded: tumor volume approximately doubled
- Tumor volume of A498 xenograft (A498 xenografts; listed as compound I): significant reduction in tumor growth
- GI50 (SK-MEL-28): 12.8 µM
- GI50 (CAKI-1): 1.01 µM
- GI50 (COLO 205): 33.8 µM
- GI50 (OVCAR-4): 100 µM
- GI50 (NCI-H460): 25.7 µM
- Half-life in vivo [3]: several hours
- Peak plasma level compared to Compound B ([3]; in vivo, po): higher peak plasma level
- Plasma level maintained for several hours ([3]; in vivo, po, 20 mg/kg): about 500 ng/mL
- GI50 (HCC-2998): 32.4 µM
- GI50 (SF-295): 1.81 µM
- GI50 (EKVX): 16.7 µM
